Consider three compounds from PMC3147293 (Cell host & microbe, 2011).

“Also recorded” adds a separate entry of the source. Where no end group is shown, it is not given here.

One data set has as its target CPAF (Chlamydia trachomatis serovar D, UniProt O84866). In words: HPLC assay of CPAF cleavage of Abz-tagged vimentin-derived peptide. It is filed as biochemical.
The next data set has as its system uninfected cells. The data set is described as follows: Toxicity in uninfected cells. The conditions noted are these: data not shown. It is filed as cell-based.
A further data set relates to proteasome. In words: Proteasome function in uninfected cells. It is filed as cell-based. The conditions noted are these: data not shown.
Data set [1] relates to Chlamydia-infected HeLa cells. In words: Death of infected HeLa cells by flow cytometry of PI-stained cells. It is filed as cell-based. The conditions noted are these: anti-CPAF peptide at 12 hpi, with/without 40μM Z-VAD-FMK at 3 hpi. In general terms: A flow cytometer gives signals particle by particle.
Another data set has as its system recombinant CPAF. The conditions noted are these: ~40 ng CPAF, 48μg GST-tagged Chlamydia proteins, 37°C, 20 min; Coomassie.

Chain of CPAF (O84866 276-601): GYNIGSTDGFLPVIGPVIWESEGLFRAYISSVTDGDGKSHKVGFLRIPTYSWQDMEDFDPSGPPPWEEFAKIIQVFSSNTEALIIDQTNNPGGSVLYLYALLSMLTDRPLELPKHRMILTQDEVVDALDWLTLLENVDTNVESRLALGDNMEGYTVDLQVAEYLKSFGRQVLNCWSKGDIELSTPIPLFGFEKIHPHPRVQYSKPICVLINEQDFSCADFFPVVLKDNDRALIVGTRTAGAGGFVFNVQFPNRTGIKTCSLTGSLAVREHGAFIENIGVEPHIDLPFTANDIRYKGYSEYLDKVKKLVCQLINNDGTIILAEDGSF
Chain of CPAF (O84866 24-234): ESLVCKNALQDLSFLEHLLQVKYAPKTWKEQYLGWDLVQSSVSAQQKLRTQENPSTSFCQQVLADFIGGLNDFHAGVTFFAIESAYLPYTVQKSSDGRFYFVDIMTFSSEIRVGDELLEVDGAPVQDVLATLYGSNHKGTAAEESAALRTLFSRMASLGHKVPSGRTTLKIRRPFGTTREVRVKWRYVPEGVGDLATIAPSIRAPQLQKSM

With “SLFYSPMVPHFWAELRNHYATSGLKRRRRRRRRR [anti-CPAF peptide]”, the midpoint of inhibition against CPAF, the IC50, lay at 0.05 µM. Further, the “toxicity in uninfected cells” value with uninfected cells was “did not induce any obvious toxicity”. The “alteration of proteasome function in uninfected cells” value with proteasome is reported as “did not induce any obvious toxicity or alter proteasome function in uninfected cells”.
As for “NFALSHFRLPLSTYKEMPYVSHWAGRRRRRRRRR [scrambled control peptide]”, the “death of infected cells (PI staining)” value in data set [1] was “PI staining was not seen”. The “inhibition of cleavage of GST-tagged substrates by recombinant CPAF” value in the data set on recombinant CPAF is reported as “but not a scrambled control peptide; also recorded: but not the scrambled control peptide”.
For the compound `CC(=O)N[C@@H](CSC(=O)[C@]1([C@@H](O)C(C)C)NC(=O)[C@H](C)[C@@H]1O)C(=O)O` [Lactacystin, lactacystin, reference compound], inhibition against CPAF was half-maximal at 10 µM (IC50).
